Results as given in patent publication US7265099B1, “Use of chemical chelators as reversal agents for drug-induced neuromuscular block” (Organon N.V., priority 1999, dated 2007).

What was measured:
[1] = test system: steady-state neuromuscular block induced by vecuronium bromide (Vec); assay: Reversal of neuromuscular blockade in vivo, anaesthetized guinea pig, vecuronium; conditions: Vec infusion, 85–90% block, anaesthetized guinea pigs, i.v. reversal agent; mean
Experimental: (§1) Male Dunkin-Hartley guinea pigs (bodyweight: 600–900 g) were anaesthetized by i.p. administration of 10 mg/kg pentobarbitone and 1000 mg/kg urethane. After tracheotomy, the animals were artificially ventilated using a Harvard small animal ventilator. A catheter was placed into the carotid artery for continuous monitoring of arterial blood pressure and the taking of blood samples for blood gas analysis. Heart rate was derived from the blood pressure signal. The sciatic nerve was stimulated (rectangular pulses of 0.5 ms duration at 10 s (0.1 Hz) intervals at a supramaximal voltage, using a Grass S88 Stimulator) and the force of M. gastrocnemius contractions was measured using a Grass FT03 force-displacement transducer. Contractions, blood pressure and heart rate were recorded on a multichannel Grass 7D recorder. Catheters were placed in both jugular veins. One catheter was used for the continuous infusion of a neuromuscular blocking agent. The infusion rate of the neuromuscular blocking agent was increased until a steady-state block of 85–90% was obtained. The other catheter was used for administration of increasing doses of the reversal agent. During continuous infusion of the neuromuscular blocking agent, single doses of increasing concentration of reversal agent were given. At the end of the experiment, the measured force of muscle contractions was plotted against the concentration of reversal agent, and using regression analysis techniques, the 50% reversal concentration was calculated.

[2] = test system: steady-state neuromuscular block induced by rocuronium bromide (Roc); assay: Reversal of neuromuscular blockade in vivo, anaesthetized guinea pig, rocuronium
Experimental: as §1
Reversal of neuromuscular block in vivo, induced by rocuronium bromide, was carried out as described in Example 5.

[3] = test system: neuromuscular block induced by rocuronium in isolated mouse hemidiaphragm; assay: Reversal of neuromuscular block in vitro: isolated mouse hemidiaphragm preparation; conditions: for maximum reversal / EC50: rocuronium bromide 3.6 μM in the bath, 95% block; for maximum reversal / EC50 / concentration of chemical chelator at maximum reversal: mouse hemidiaphragm; for EC50: read-out: 50% reversal concentration; for Mouse hemidiaphragm: maximum reversal (%) / concentration of chemical chelator at maximum reversal: 3.1 μM rocuronium; for Reversal of the neuromuscular blocking action of rocuronium (in words): rocuronium-induced block
Experimental: Hemidiaphragms, with phrenic nerves attached, were removed from euthanized male mice (Institute of Cancer Research; bodyweight: 20–60 g). The preparations were mounted on a tissue holder and placed in a tissue bath filled with a modified Krebs-Henseleit solution (composition: 118 mM NaCl, 30 mM NaHCO3, 5 mM KCl, 1 mM KH2PO4, 1 mM MgSO4, 30 mM glucose and 2.5 mM CaCl2) at 37° C. and bubbled with 95% oxygen and 5% carbondioxide. One end of the preparation was connected with a siliconized silk suture to a Grass FT03 force-displacement transducer. An initial force of 10 mN was applied. The phrenic nerve was placed on a bipolar platinum electrode and was stimulated with rectangular pulses of 0.2 ms duration at 20 s (0.05 Hz) intervals at a supramaximal voltage, using a Grass S88 Stimulator. Contractions were recorded on a four channel Grass 79D recorder.
Increasing amounts of reversal agent were then administered into the bath at intervals of 10 min. The % maximum reversal was established. At the end of the experiment, the measured muscle contractions force was plotted against the concentration of reversal agent, and using regression analysis techniques, the 50% reversal concentration was calculated.
After induction of neuromuscular block by rocuronium, the % maximum reversal produced by the addition of a number of γ-cyclodextrin derivatives (compounds 11–16), a cyclic octasaccharide comprising 4 rhamnosyl-mannopyranosyl units (compound 24), or a number of paracyclophane derivatives (compounds 17–21 and 23) are presented in Table II.
Reversal of neuromuscular block in vitro was carried out using the mouse hemidiaphragm preparation as described in Example 6.

[4] = test system: steady-state neuromuscular block induced by suxamethonium chloride (Sux; succinylcholine); assay: Reversal of neuromuscular blockade in vivo, anaesthetized guinea pig, suxamethonium; conditions: Sux infusion, 85–90% block, anaesthetized guinea pigs, i.v. reversal agent; mean
Experimental: as §1

[5] = test system: steady-state neuromuscular block induced by rapacuronium bromide (Rap; Org 9487); assay: Reversal of neuromuscular blockade in vivo, anaesthetized guinea pig, rapacuronium; conditions: Rap infusion, 85–90% block, anaesthetized guinea pigs, i.v. reversal agent; mean
Experimental: as §1

[6] = test system: steady-state neuromuscular block induced by pancuronium bromide (Pan); assay: Reversal of neuromuscular blockade in vivo, anaesthetized guinea pig, pancuronium; conditions: Pan infusion, 85–90% block, anaesthetized guinea pigs, i.v. reversal agent; mean
Experimental: as §1

[7] = Roc infusion, 85–90% block, anaesthetized guinea pigs, i.v. reversal agent, mean
[8] = rocuronium bromide, anaesthetised guinea pig, as in Example 5

| Molecule | Dose (ED50) producing 50% reversal of steady-state neuromuscular block [1] | Dose (ED50) producing 50% reversal of steady-state neuromuscular block [2, 7] | Mouse hemidiaphragm: maximum reversal (%) [3] [%] | concentration of chemical chelator at maximum reversal [3] [µM] | other results |
| --- | --- | --- | --- | --- | --- |
| 2-hydroxy-3-trimethylammonio propyl-β-CD (DS = 3.5) [Compound 3] | 1400 (1) μmol.kg^−1 | 518 (2) μmol.kg^−1 | – | – | – |
| 2-hydroxypropyl-β-CD [Compound 10] | 1598 (4) μmol.kg^−1 | 33 (3) μmol.kg^−1 | – | – | – |
| O=S(=O)(O)c1cc2c(O)c(c1)Cc1cc(S(=O)(=O)O)cc(c1O)Cc1cc(S(=O)(=O)O)cc(c1O)Cc1cc(S(=O)(=O)O)cc(c1O)Cc1cc(S(=O)(=O)O)cc(c1O)Cc1cc(S(=O)(=O)O)cc(c1O)C2 [4-sulfonic calix[6]arene, 4-Sulfonic calix[6]arene] | – | – | – | – | maximum reversal [3]: 120%; EC50 [3]: 34 µM; Dose (ED50) producing 50% reversal of steady-state neuromuscular block [2, 8]: 5.1 µmol/kg |
| O=S(=O)(O)c1cc2c(O)c(c1)Cc1cc(S(=O)(=O)O)cc(c1O)Cc1cc(S(=O)(=O)O)cc(c1O)Cc1cc(S(=O)(=O)O)cc(c1O)Cc1cc(S(=O)(=O)O)cc(c1O)Cc1cc(S(=O)(=O)O)cc(c1O)Cc1cc(S(=O)(=O)O)cc(c1O)Cc1cc(S(=O)(=O)O)cc(c1O)C2 [4-sulfonic calix[8]arene] | – | – | – | – | maximum reversal [3]: 124%; EC50 [3]: 36 µM; Dose (ED50) producing 50% reversal of steady-state neuromuscular block [2, 8]: 34 µmol/kg |
| OC[C@H]1O[C@@H]2O[C@H]3[C@H](O)[C@@H](O)[C@@H](O[C@H]4[C@H](O)[C@@H](O)[C@@H](O[C@H]5[C@H](O)[C@@H](O)[C@@H](O[C@H]6[C@H](O)[C@@H](O)[C@@H](O[C@H]7[C@H](O)[C@@H](O)[C@@H](O[C@H]1[C@H](O)[C@H]2O)O[C@@H]7CO)O[C@@H]6CO)O[C@@H]5CO)O[C@@H]4CO)O[C@@H]3CO [Compound 1, α-cyclodextrin] | 2610 (1) μmol.kg^−1 | 1575 (2) μmol.kg^−1 | – | – | – |
| O=C(O)c1cc2ccc1OCCCCCOc1ccc(cc1C(=O)O)Cc1ccc(c(C(=O)O)c1)OCCCCCOc1ccc(cc1C(=O)O)C2 [Compound 17, 1,7,21,27-tetraoxa-9,17,29,37-tetracarboxy[7.1.7.1]paracyclophane] | – | – | 11 | 360 | – |
| O=C(O)c1cc2ccc1OCc1ccc(cc1)COc1ccc(cc1C(=O)O)Cc1ccc(c(C(=O)O)c1)OCc1ccc(cc1)COc1ccc(cc1C(=O)O)C2 [Compound 18, 1,10,24,33-tetraoxa-12,20,35,43-tetracarboxy-[2.2.1.2.2.1]paracyclophane] | – | – | 61 | 288 | Reversal of the neuromuscular blocking action of rocuronium (in words) [3]: efficiently blocked |
| O=C(O)CC(=O)N1CCCCCN(C(=O)CC(=O)O)c2ccc(cc2)Cc2ccc(cc2)N(C(=O)CC(=O)O)CCCCCN(C(=O)CC(=O)O)c2ccc(cc2)Cc2ccc1cc2 [Compound 19, N, N′, N″, N′″-Tetrakis(carboxyacetyl)-1,7, 21, 27-tetraaza[7.1.7.1] paracyclophane] | – | – | 2.4 | 108 | – |
| O=C(O)CCCC(=O)N1CCCCCN(C(=O)CCCC(=O)O)c2ccc(cc2)Cc2ccc(cc2)N(C(=O)CCCC(=O)O)CCCCCN(C(=O)CCCC(=O)O)c2ccc(cc2)Cc2ccc1cc2 [Compound 20, N, N′, N″, N′″-Tetrakis(4-carboxybutyryl)-1,7, 21, 27-tetraaza[7.1.7.1] paracyclophane] | – | – | 8.7 | 72 | – |
| O=C(O)CCC(=O)N1CCCCCN(C(=O)CCC(=O)O)c2ccc(cc2)Cc2ccc(cc2)N(C(=O)CCC(=O)O)CCCCCN(C(=O)CCC(=O)O)c2ccc(cc2)Cc2ccc1cc2 [Compound 21, N, N′,N″, N′″-Tetrakis(3-carboxypropionyl)-1,7, 21, 27-tetraaza[7.1.7.1]para-cyclophane] | – | – | 0 | 360 | – |
| O=C(O)CCC(=O)N1CC2CCC(CC2)CN(C(=O)CCC(=O)O)c2ccc(cc2)Cc2ccc(cc2)N(C(=O)CCC(=O)O)CC2CCC(CC2)CN(C(=O)CCC(=O)O)c2ccc(cc2)Cc2ccc1cc2 [Compound 23, N, N′, N″, N′″-Tetra (3-carboxypropionyl)-3,4,5,6,7,8,26,27,28,29,30,31-dodecahydro-1,10,24,33-tetraaza[2.2.1.2.2.1]paracyclophane] | – | – | 90 | 58 | Reversal of the neuromuscular blocking action of rocuronium (in words) [3]: efficiently blocked |
| carboxyethyl-β-CD (DS = 3) [Compound 8] | 103 (2) μmol.kg^−1 | 42 (3) μmol.kg^−1 | – | – | Dose (ED50) producing 50% reversal of steady-state neuromuscular block [4]: 408 (2) μmol.kg^−1; Dose (ED50) producing 50% reversal of steady-state neuromuscular block [5]: 412 (2) μmol.kg^−1; Dose (ED50) producing 50% reversal of steady-state neuromuscular block [6]: 479 (2) μmol.kg^−1 |
| carboxymethyl-β-CD (DS 3–3.5) [Compound 7] | – | 139 (3) μmol.kg^−1 | – | – | – |
| carboxymethyl-β-CD (DS = 3.5) [Compound 2] | 800 (1) μmol.kg^−1 | 134 (2) μmol.kg^−1 | – | – | – |
| cyclo[(1–4)-α-L-rhamnopyranosyl-(1–4)-α-D-mannopyranosyl]-tetraoside [Compound 24] | – | – | 86 | 288 | Reversal of the neuromuscular blocking action of rocuronium (in words) [3]: efficiently blocked; Reversal of the neuromuscular blocking action of rocuronium (in words) ([3]; listed as cyclo-[(1–4)-α-L-rhamno-pyranosyl-(1–4)-α-D-mannopyranosyl]tetraoside): effective |
| per 2,6-dimethyl-β-CD (DS = 12.6) [Compound 4] | 1313 (4) μmol.kg^−1 | 70 (2) μmol.kg^−1 | – | – | – |
| β-cyclodextrin-phosphate sodium salt (DS = 3) [Compound 5] | – | 280 (3) μmol.kg^−1 | – | – | – |
| β-cyclodextrin-phosphate sodium salt (DS = 8) [Compound 6] | – | 120 (2) μmol.kg^−1 | – | – | – |
| γ-cyclodextrin-phospate sodium salt (DS = 7) [Compound 12] | – | 52 (2) μmol.kg^−1 | 17 | 360 | – |
